Laboratory results: paper PMC6516726 (ACS Catalysis, 2018)
Like-named read-outs stand apart in the source and are kept apart here.

How the values were obtained:
PETNR = molecular target: PETNR; design: method as in earlier work; conditions: PETNR−coenzyme analogue complex; cited from earlier work
WT PETNR [1] = molecular target: T1, WT PETNR (Enterobacter cloacae, UniProt P71278); test: Stopped-flow FMN reduction (reductive half-reaction, hydride transfer) of WT PETNR by coenzyme; conditions: for kobs1 / A2 (amplitude of kobs2 out of total absorbance change) / kobs2: 10 mM NADPH or 25 mM NADH, pH 7.0
T1 sequence (P71278 entry or part of it): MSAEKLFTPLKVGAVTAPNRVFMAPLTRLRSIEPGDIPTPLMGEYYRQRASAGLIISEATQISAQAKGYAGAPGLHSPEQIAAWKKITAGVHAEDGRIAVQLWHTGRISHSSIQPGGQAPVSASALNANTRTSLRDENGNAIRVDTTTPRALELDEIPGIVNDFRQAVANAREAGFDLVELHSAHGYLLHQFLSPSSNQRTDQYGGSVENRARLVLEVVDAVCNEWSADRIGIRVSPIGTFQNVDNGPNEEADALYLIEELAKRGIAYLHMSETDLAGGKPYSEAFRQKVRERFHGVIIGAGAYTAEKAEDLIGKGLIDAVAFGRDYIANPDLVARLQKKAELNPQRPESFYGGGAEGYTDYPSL

L25I PETNR = L25I PETNR (Enterobacter cloacae, UniProt P71278, L26I); conditions: for kobs1 / A2 (amplitude of kobs2 out of total absorbance change) / kobs2: 10 mM NADPH or 25 mM NADH, pH 7.0
L25I PETNR, sequence (P71278 entry or part of it L26I): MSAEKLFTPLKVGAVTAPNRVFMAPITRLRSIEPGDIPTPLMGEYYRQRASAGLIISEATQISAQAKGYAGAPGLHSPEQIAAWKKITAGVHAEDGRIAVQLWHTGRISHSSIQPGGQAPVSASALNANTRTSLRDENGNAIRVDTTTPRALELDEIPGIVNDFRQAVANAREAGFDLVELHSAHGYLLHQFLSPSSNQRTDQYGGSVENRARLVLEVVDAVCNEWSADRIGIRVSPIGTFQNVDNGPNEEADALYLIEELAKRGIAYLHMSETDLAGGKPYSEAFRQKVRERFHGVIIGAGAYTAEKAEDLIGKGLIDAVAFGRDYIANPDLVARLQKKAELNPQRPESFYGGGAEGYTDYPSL

WT PETNR [2] = molecular target: T1, WT PETNR; test: pH dependence of FMN reduction of WT PETNR in MTEN buffer; type: biochemical, Enterobacter Cloacae PB2; design: made in house; conditions: for Isotope effect on ΔCp⧧ / Isotope effect on ΔHT0⧧ / Isotope effect on ΔST0⧧: (R)-[4-2H]-NADPH - NADPH
Description: (R)-[4-2H]-NADPH at pH 6, pH 7 and pH9 (A) and the corresponding temperature dependencies of the observed primary kinetic isotope effects (B). The measurements were performed in MTEN buffer (50 mM MES, 25 mM Tris, 25 mM ethanola-mine, and 100 mM NaCl), which has a useful buffering capacity and minimal change in ionic strength over the pH range 6-9 in which PETNR is stable; we attempted testing PETNR in pH 5 as well, but the enzyme is unstable at this pH. The observed rate constants of FMN reduction at pH 7 in MTEN buffer are essentially the same to those measured in 50 mM potassium phosphate buffer, pH 7 and similar observation are valid for the KIEs values (Table S3).The rate of FMN reduction is essentially insensitive to pH across the whole temperature range (5-40 °C), and also that KIEs values are essentially not affected by changes in pH (the rate of FMN reduction by (R)-[4-2H]-NADPH is independent of pH as well across all temperatures studied; see Table S3 for extracted thermodynamic parameters). Although these experiments cannot completely exclude any kinetic […]
of H-transfer and protonation (which would lead to pH-dependent rates) which makes it very likely that the observed rate are reporting directly on the H-transfer step.
Table S3. Extracted Thermodynamic Parameters from pH Dependence Studies.
(kJ mol-1) (J mol-1 K-1) (kJ mol-1 K-1)

L25A PETNR = L25A PETNR (Enterobacter cloacae, UniProt P71278, L26A); conditions: for kobs1 / kobs2 / A2 (amplitude of kobs2 out of total absorbance change): 10 mM NADPH or 25 mM NADH, pH 7.0
L25A PETNR, sequence (P71278 entry or part of it L26A): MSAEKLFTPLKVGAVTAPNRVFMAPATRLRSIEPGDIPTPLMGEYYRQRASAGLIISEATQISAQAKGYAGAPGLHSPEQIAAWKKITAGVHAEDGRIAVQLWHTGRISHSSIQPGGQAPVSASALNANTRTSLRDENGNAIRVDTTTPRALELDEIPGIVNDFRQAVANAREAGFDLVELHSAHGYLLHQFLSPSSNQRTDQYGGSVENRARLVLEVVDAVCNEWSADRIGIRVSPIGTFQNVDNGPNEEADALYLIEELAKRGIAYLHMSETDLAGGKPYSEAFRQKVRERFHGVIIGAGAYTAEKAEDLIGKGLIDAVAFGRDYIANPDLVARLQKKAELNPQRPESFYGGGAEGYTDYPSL

[3] = T0 = 298 K, fit of kobs1 (5–40 °C) to eq 1
[4] = deuterated minus protiated coenzyme, T0 = 298 K

## NC(=O)C1=CN([C@@H]2O[C@H](COP(=O)(O)OP(=O)(O)OC[C@H]3O[C@@H](n4cnc5c(N)ncnc54)[C@H](OP(=O)(O)O)[C@@H]3O)[C@@H](O)[C@H]2O)CCC1 [NADPH4]
PETNR
  Kd: 130 µM

## [2H][C@@H]1C=CN([C@@H]2O[C@H](COP(=O)(O)OP(=O)(O)OC[C@H]3O[C@@H](n4cnc5c(N)ncnc54)[C@H](OP(=O)(O)O)[C@@H]3O)[C@@H](O)[C@H]2O)C=C1C(N)=O [(R)-[4-^2H]-NADPH]
WT PETNR [1]; 5 °C
  kobs1: 1.51 ± 0.01 s⁻¹
WT PETNR [1]; 10 °C
  kobs1: 2.13 ± 0.01 s⁻¹
WT PETNR [1]; 15 °C
  kobs1: 2.90 ± 0.01 s⁻¹
WT PETNR [1]; 20 °C
  kobs1: 3.95 ± 0.02 s⁻¹
WT PETNR [1]; 25 °C
  kobs1: 5.20 ± 0.04 s⁻¹
WT PETNR [1]; 30 °C
  kobs1: 6.59 ± 0.04 s⁻¹
WT PETNR [1]; 35 °C
  A2 (amplitude of kobs2 out of total absorbance change): 2.54 ± 0.53%
  kobs1: 8.48 ± 0.03 s⁻¹
  kobs2: 1.22 ± 0.45 s⁻¹
WT PETNR [1]; 40 °C
  A2 (amplitude of kobs2 out of total absorbance change): 3.41 ± 0.65%
  kobs1: 9.96 ± 0.18 s⁻¹
  kobs2: 1.11 ± 0.24 s⁻¹
WT PETNR [1]; [3]
  ΔCp^⧧: –0.32 ± 0.04 kJ mol^–1 K^–1
  ΔHT0^⧧: 36.8 ± 0.3 kJ mol^–1
WT PETNR [1]; [4]
  Isotope Effect on ΔCp^⧧: 0.18 ± 0.06 kJ mol^–1 K^–1
  Isotope Effect on ΔHT0^⧧ (ΔΔHT0^⧧): 6.4 ± 0.4 kJ mol^–1
  Isotope Effect on ΔST0^⧧: 5.8 ± 1.5 J mol^–1 K^–1
L25I PETNR; 5 °C
  kobs1: 1.26 ± 0.02 s⁻¹
L25I PETNR; 15 °C
  kobs1: 2.46 ± 0.01 s⁻¹
L25I PETNR; 20 °C
  A2 (amplitude of kobs2 out of total absorbance change): 2.63 ± 0.15%
  kobs1: 3.42 ± 0.03 s⁻¹
  kobs2: 0.19 ± 0.04 s⁻¹
L25I PETNR; 25 °C
  A2 (amplitude of kobs2 out of total absorbance change): 3.59 ± 0.27%
  kobs1: 4.50 ± 0.02 s⁻¹
  kobs2: 0.27 ± 0.03 s⁻¹
L25I PETNR; 30 °C
  kobs1: 5.72 ± 0.06 s⁻¹
  kobs2: 0.28 ± 0.01 s⁻¹
L25I PETNR; 35 °C
  A2 (amplitude of kobs2 out of total absorbance change): 7.05 ± 0.36%
  kobs1: 7.20 ± 0.07 s⁻¹
  kobs2: 0.42 ± 0.07 s⁻¹
L25I PETNR; 40 °C
  A2 (amplitude of kobs2 out of total absorbance change): 12.46 ± 0.45%
  kobs1: 8.66 ± 0.09 s⁻¹
L25I PETNR; [3]
  ΔCp^⧧: –0.53 ± 0.09 kJ mol^–1 K^–1
  ΔHT0^⧧: 36.7 ± 0.5 kJ mol^–1
L25I PETNR; [4]
  Isotope Effect on ΔCp^⧧: –0.11 ± 0.11 kJ mol^–1 K^–1
  Isotope Effect on ΔHT0^⧧: 6.3 ± 0.7 kJ mol^–1
  Isotope Effect on ΔST0^⧧: 5.4 ± 2.5 J mol^–1 K^–1
WT PETNR [2]; pH 6, MTEN buffer
  ΔCp⧧: -0.57 ± 0.15 kJ mol-1 K-1
  ΔHT0⧧: 33.0 ± 0.9 kJ/mol
  Isotope effect on ΔCp⧧: 0.01 ± 0.18 kJ mol-1 K-1
  Isotope effect on ΔHT0⧧: 5.8 ± 1.1 kJ/mol
  Isotope effect on ΔST0⧧: 3.7 ± 3.5 J mol-1 K-1
WT PETNR [2]; pH 7, MTEN buffer
  ΔCp⧧: -0.54 ± 0.09 kJ mol-1 K-1
  ΔHT0⧧: 34.6 ± 0.5 kJ/mol
  ΔST0⧧: -115.0 ± 1.8 J mol-1 K-1
  Isotope effect on ΔCp⧧: 0.07 ± 0.12 kJ mol-1 K-1
  Isotope effect on ΔHT0⧧: 7.0 ± 0.7 kJ/mol
  Isotope effect on ΔST0⧧: 7.7 ± 2.4 J mol-1 K-1
WT PETNR [2]; pH 9, MTEN buffer
  ΔCp⧧: -0.48 ± 0.07 kJ mol-1 K-1
  ΔHT0⧧: 35.5 ± 0.4 kJ/mol
  ΔST0⧧: -111.9 ± 1.3 J mol-1 K-1
  Isotope effect on ΔCp⧧: -0.03 ± 0.13 kJ mol-1 K-1
  Isotope effect on ΔHT0⧧: 6.6 ± 0.8 kJ/mol
  Isotope effect on ΔST0⧧: 6.7 ± 2.6 J mol-1 K-1
L25A PETNR; 5 °C
  kobs1: 2.37 ± 0.01 s⁻¹
L25A PETNR; 10 °C
  kobs1: 3.33 ± 0.03 s⁻¹
L25A PETNR; 15 °C
  kobs1: 4.59 ± 0.03 s⁻¹
L25A PETNR; 20 °C
  kobs1: 6.14 ± 0.04 s⁻¹
L25A PETNR; 25 °C
  kobs1: 8.01 ± 0.22 s⁻¹
  kobs2: 0.03 ± 0.03 s⁻¹
L25A PETNR; 30 °C
  A2 (amplitude of kobs2 out of total absorbance change): 5.83 ± 0.60%
  kobs1: 10.24 ± 0.05 s⁻¹
  kobs2: 0.16 ± 0.03 s⁻¹
L25A PETNR; 35 °C
  A2 (amplitude of kobs2 out of total absorbance change): 14.06 ± 0.45%
  kobs1: 11.89 ± 0.07 s⁻¹
  kobs2: 0.17 ± 0.01 s⁻¹
L25A PETNR; 40 °C
  A2 (amplitude of kobs2 out of total absorbance change): 31.19 ± 1.07%
  kobs1: 12.39 ± 0.22 s⁻¹
  kobs2: 0.26 ± 0.02 s⁻¹
L25A PETNR; [3]
  ΔCp^⧧: –0.78 ± 0.15 kJ mol^–1 K^–1
  ΔHT0^⧧: 31.9 ± 1.1 kJ mol^–1
  ΔST0^⧧: –120.5 ± 3.7 J mol^–1 K^–1
L25A PETNR; [4]
  Isotope Effect on ΔCp^⧧: 0.14 ± 0.19 kJ mol^–1 K^–1
  Isotope Effect on ΔHT0^⧧: 8.6 ± 1.27 kJ mol^–1
  Isotope Effect on ΔST0^⧧: 13.3 ± 5.6 J mol^–1 K^–1

## NC(=O)C1=CN([C@@H]2O[C@H](COP(=O)(O)OP(=O)(O)OC[C@H]3O[C@@H](n4cnc5c(N)ncnc54)[C@H](O)[C@@H]3O)[C@@H](O)[C@H]2O)CCC1 [NADH4, 1,4,5,6-tetrahydro-NAD]
PETNR
  Kd: 140 µM
